Data published in US20250205369A1, “DENDRIMER COMPOSITIONS AND USE IN TREATMENT OF NEUROLOGICAL AND CNS DISORDERS” (THE JOHNS HOPKINS UNIVERSITY, priority 2014, published 2025).

Key:
plasma protein = details: free drug; cited from earlier work
[1] = system: LPS-induced brain injury in a neonatal rabbit model of cerebral palsy; assay: LPS-induced brain injury in neonatal rabbit model of cerebral palsy; format: in vivo
Procedure: The therapeutic efficacy of GA-PAMAM-S-S-NAC dendrimer conjugate was evaluated after two days of animal treatment with lipopolysaccharide (LPS) to induce white matter injury and hypomyelination in the developing rabbit brain (an animal model of Cerebral Palsy).

microglial cells = assay: GSH depletion, ROS, NO, H2O2 and nitrite in microglial cells; format: cell-based; details: highest concentration (5 mM)
MeCP2-null mice = assay: NAC and D-NAC therapy in MeCP2-null (RTT) mice: survival, behavior, appearance; format: in vivo; details: MeCP2-null pups
Procedure: Detailed materials and methods used in the experiments below, including protocols for making the dendrimers-Cy5 and dendrimers-drug conjugates, have been described by Kannan S et al Sci. Transl. Med., 4:130ra46 (2012) and in U.S. Pat. No. 8,889,101.
RTT mice were the Adrian Bird model available from Jackson Laboratory.
Weight and behavior were also assessed. Cytokines were measured using standard mice primers for the assessment of inflammatory markers (Kannan S et al Sci. Transl. Med., 4:130ra46 (2012)).
Conjugation of dendrimer conjugates. The conjugation of dendrimers to Cy5 was done using previously reported methods (Kannan et al., Science Trans. Med (April 2012). For drug experiments, dendrimers were conjugated to N-acetyl-cysteine and administered at doses ranging from 2-20 mg/kg at differing time points.
The mice were injected with D-drug or PBS every 3-4 days, Statistical analysis. The data was analyzed for the reproducibility using Student's t-test to determine the significance between two groups. A p-value equal to or less than 0.05 was considered significant.
Animals were videotaped prior to treatment every 3-4 days, and mobility, gait, tremors, paw clenching, paw clenching time, paw wringing, and respiration were all scored on a scale of 0-3, where ‘0’ indicates the worst score and ‘3’ is best or normal. […]

CC(=O)N[C@@H](CS)C(=O)O [NAC, N-acetyl cysteine]
Plasma protein binding (plasma protein): very high plasma protein binding | Dose eliciting identical responses ([1]; free NAC vs conjugate): 100 mg/kg | Fetal inflammation response and motor deficits compared to saline-treated kits ([1]; rabbit kits): decrease in fetal inflammation response with improvement of motor deficits | Reduction of H2O2 levels (microglial cells): 30-40% | Reduction of nitrite levels (microglial cells): 30-40% | Safety / toxicity from survival (MeCP2-null mice; twice weekly therapy): potential toxicity | Survival (Kaplan-Meier) compared to non-treated animals (MeCP2-null mice; twice weekly, 10 mg/kg (NAC basis) from PND21): worse survival than non-treated Rett mice
